{"source": "patent US9216942B2", "about": "“Compounds and uses thereof for treating inflammation and modulating immune responses” (PURAPHARM COMPANY LIMITED, priority 2012, dated 2015)", "key": {"[1]": {"system": "LPS-induced TNF-α production", "test": "Inhibition of LPS-induced TNF-α production in PBMac (ELISA)", "type": "cell-based, Human", "conditions": "for inhibition of LPS-induced TNF-α protein production: PBMac pre-incubated with compound 18 h, then 10 ng/ml LPS for 24 h, ELISA of supernatant, mean±S.D., compound concentration not given (25 and 50 ug/ml tested)", "experimental": "FIGS. 2 (A-C) show the inhibition of LPS-induced TNF-α production by Compound A1, Compound A2 and Cim A. PBMac cells are incubated with (A) 25 and 50 ug/ml A1 or (B) 25 and 50 ug/ml A2 or (C) 25 and 50 ug/ml Cim A for 18 h prior to the addition of 10 ng/ml LPS for another 24 h. The culture supernatants are collected and assayed for TNF-α production by enzyme-linked immunosorbent assay (ELISA). The results shown are the mean values±standard derivation (S.D.) of at least three independent experiments, with cells obtained from different donors. * P<0.05, ** P<0.01 compared with the control.\nEndotoxin (lipopolysachamide, LPS) from E. coli was purchased from Sigma and used as an inducer of TNF-α expression. Dexamethasone (Sigma) was used as a control drug to inhibit the LPS induction of TNF-α.\n(§1) Human peripheral blood monocytic cells (PBMC) were isolated from the buffy coat of healthy donor blood supplied by Hong Kong Red Cross by Ficoll-Paque (Amersham Pharmacia Biotech, Piscataway, N.J.) density gradient centrifugation as described in our previous reports. In brief, the buffy coat was spun at 3000 rotations per min (rpm) for 15 min to separate the blood cells and the plasma. The heat inactivated serum was filtered for future use.\n(§2) The cell layer was diluted with phosphate buffered saline (PBS) in a ratio of 1:1. The diluted cells were overlaid on Ficoll-Paque slowly and centrifuged at 2300 rpm for 20 min for separation of mononuclear cells from erythrocytes. The mononuclear cell layer was removed and washed with RPMI 1640 medium until the supernatant was clear.\n(§3) The cells were finally resuspended in RPMI 1640 medium supplemented with 5% autologous serum and cultured for 1 hr. The non-adherent cells were removed afterwards and the remaining adherent cells were further incubated for another 24 hr at 37° C. in 5% carbon dioxide (CO2).\n(§4) The adherent monocytic cells were detached and seeded onto tissue culture plates and incubated for another 7-14 days in order to differentiate the primary blood monocytic cells to primary blood macrophages (PBMac).\nCulture supernatants of the LPS-treated PBMac, with or without pretreatment of Cim A, Compound A1 or Compound A2, were collected at different time intervals and stored at −70° C. The levels of the secreted TNF-α were measured by ELISA kits specific for the cytokine (R&D system, Minneapolis, Minn.)."}, "PBMac": {"system": "PBMac", "test": "MTT cytotoxicity assay on PBMac", "type": "cell-based, Human", "conditions": "25-75 ug/ml, time course of 48 h", "experimental": "Incubation of PBMac cells with the compounds at various concentrations produces no significant difference in the metabolic activities of the cells, when compared to control. Cytotoxic effects of Compounds A1, A2 and Cim A (25-75 ug/ml) on PBMac are determined by MTT (3-[4,5-dimethylthiazol-2-yl]-2,5-di-phenyltetrazolim bromide) assays over a time course of 48 h.\nas §1, §2, §3, §4"}}}
{"smiles": "COc1ccc(/C=C/C(=O)OCC(=O)Cc2ccc(O)c(O)c2)cc1O", "note": "[Cim A, Cimiracemate A, reference compound]", "values": [{"measurement": "inhibition of LPS-induced TNF-α protein production", "setting": "[1]", "value": "50±19", "unit": "%"}, {"measurement": "cytotoxic effects (MTT, metabolic activity of cells vs control)", "setting": "PBMac", "value": "almost no cytotoxic effects"}]}
{"smiles": "O=C(COC(=O)/C=C/c1ccc(O)c(O)c1)Cc1cccc(O)c1", "note": "[Compound A1]", "values": [{"measurement": "inhibition of LPS-induced TNF-α protein production", "setting": "[1]", "value": "26±15", "unit": "%"}, {"measurement": "cytotoxic effects (MTT, metabolic activity of cells vs control)", "setting": "PBMac", "value": "almost no cytotoxic effects"}]}
{"smiles": "COc1ccc(/C=C/C(=O)OCC(=O)Cc2ccc(O)c(O)c2)cc1", "note": "[Compound A2]", "values": [{"measurement": "inhibition of LPS-induced TNF-α protein production", "setting": "[1]", "value": "67±10", "unit": "%"}, {"measurement": "activity in inhibiting LPS-induced TNF-α production, higher than that of Cim A", "setting": "[1]; compound at 50 μg/ml, relative to Cim A", "value": 34, "unit": "%"}, {"measurement": "cytotoxic effects (MTT, metabolic activity of cells vs control)", "setting": "PBMac", "value": "almost no cytotoxic effects"}]}
